According to article PMC11091967, “Silicon-Rhodamine Functionalized Evocalcet Probes Potently and Selectively Label Calcium Sensing Receptors In Vitro, In Vivo, and Ex Vivo” (ACS Pharmacology & Translational Science, 2024):
“Also recorded” adds a separate entry of the source.

Legend:
HCAR cells = assay: Calcein AM viability assay, HCAR cells, 72 h; assay type: cell-based, hamster; settings: for IC50: Cricetulus griseus
Description: (§1) The effects of EvoSiR probes and evocalcet on the viability of CCL39 and HCAR cells were evaluated using the Calcein AM assay as described by the manufacturer’s protocol (AAT Bioquest, 22002) with a working concentration of 10 μM. For the assay, cells were incubated in various concentrations of the compounds for 72 h. For positive controls, cells were incubated in culture media containing maximum 10% DMSO in a two-step dilution series for 72 h. Upon incubation in the Calcein AM solution for 1 h at 37 °C, the fluorescence readouts were retrieved using the Tecan GENios pro microplate reader (λex = 485 nm, λem = 535 nm, gain = 25 AU)

CCL39 cells = assay: Calcein AM viability assay, CCL39 cells, 72 h; assay type: cell-based, hamster
Description: as §1

[1] = target: T1, bovine serum albumin (BSA) (Bos taurus, UniProt P02769); assay: Spectrofluorometric analysis of fluorogenicity upon BSA binding; assay type: physicochemical; settings: for increase in absolute fluorescence upon addition of 1% BSA: 1% BSA compared to PBS
T1 construct: purchased Sigma A7906
T1 sequence (P02769 25-607): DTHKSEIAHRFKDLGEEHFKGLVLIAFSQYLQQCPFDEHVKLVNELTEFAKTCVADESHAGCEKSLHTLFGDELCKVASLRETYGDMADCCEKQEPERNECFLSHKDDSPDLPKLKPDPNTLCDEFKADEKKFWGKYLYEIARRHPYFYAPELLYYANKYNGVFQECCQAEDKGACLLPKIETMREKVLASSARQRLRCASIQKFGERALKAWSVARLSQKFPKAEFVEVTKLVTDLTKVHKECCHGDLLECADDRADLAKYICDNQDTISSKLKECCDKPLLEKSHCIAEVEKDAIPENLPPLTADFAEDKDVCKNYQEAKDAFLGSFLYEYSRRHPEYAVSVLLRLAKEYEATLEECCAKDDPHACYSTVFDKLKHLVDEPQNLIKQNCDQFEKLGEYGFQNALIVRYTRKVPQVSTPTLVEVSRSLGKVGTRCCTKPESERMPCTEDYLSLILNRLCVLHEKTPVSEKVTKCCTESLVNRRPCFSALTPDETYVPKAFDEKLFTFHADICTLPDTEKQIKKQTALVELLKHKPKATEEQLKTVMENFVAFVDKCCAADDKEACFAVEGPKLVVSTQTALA
Description: Spectrofluorometric measurements were carried out by using the Agilent Cary Eclipse instrument. The voltage of the photomultiplier tube (PMT) was set to 600 for EvoSiR4 and EvoSiR6, and for 500 for SiR (4). Fluorescence of the probes was measured at concentrations ranging from 30 to 3000 nM in PBS containing various amounts of bovine serum albumin (BSA) (Sigma, A7906). Quenching experiments for the calculation of BSA binding were performed by adding a 1:1 molar ratio of tannic acid dissolved in ddH2O (Sigma, 403040) to the solution prior to measuring fluorescence.

human CaSR = target: T2, human CaSR (Homo sapiens, UniProt P41180); assay: In vitro labeling of CaSR expressing (HCAR) and control (CCL39) cells, fluorescence microscopy; assay type: cell-based; settings: for fold increase in skewness of pixel intensity distribution, CaSR+ (HCAR) vs CaSR- (CCL39) cells: 500 nM probe; for fold mean fluorescence difference between CaSR+ and CaSR- cells: 72 h incubation
T2 construct: host or cells: CCL39 hamster lung fibroblasts stably transfected (HCAR), Geneticin selection
T2 sequence (P41180 20-1078): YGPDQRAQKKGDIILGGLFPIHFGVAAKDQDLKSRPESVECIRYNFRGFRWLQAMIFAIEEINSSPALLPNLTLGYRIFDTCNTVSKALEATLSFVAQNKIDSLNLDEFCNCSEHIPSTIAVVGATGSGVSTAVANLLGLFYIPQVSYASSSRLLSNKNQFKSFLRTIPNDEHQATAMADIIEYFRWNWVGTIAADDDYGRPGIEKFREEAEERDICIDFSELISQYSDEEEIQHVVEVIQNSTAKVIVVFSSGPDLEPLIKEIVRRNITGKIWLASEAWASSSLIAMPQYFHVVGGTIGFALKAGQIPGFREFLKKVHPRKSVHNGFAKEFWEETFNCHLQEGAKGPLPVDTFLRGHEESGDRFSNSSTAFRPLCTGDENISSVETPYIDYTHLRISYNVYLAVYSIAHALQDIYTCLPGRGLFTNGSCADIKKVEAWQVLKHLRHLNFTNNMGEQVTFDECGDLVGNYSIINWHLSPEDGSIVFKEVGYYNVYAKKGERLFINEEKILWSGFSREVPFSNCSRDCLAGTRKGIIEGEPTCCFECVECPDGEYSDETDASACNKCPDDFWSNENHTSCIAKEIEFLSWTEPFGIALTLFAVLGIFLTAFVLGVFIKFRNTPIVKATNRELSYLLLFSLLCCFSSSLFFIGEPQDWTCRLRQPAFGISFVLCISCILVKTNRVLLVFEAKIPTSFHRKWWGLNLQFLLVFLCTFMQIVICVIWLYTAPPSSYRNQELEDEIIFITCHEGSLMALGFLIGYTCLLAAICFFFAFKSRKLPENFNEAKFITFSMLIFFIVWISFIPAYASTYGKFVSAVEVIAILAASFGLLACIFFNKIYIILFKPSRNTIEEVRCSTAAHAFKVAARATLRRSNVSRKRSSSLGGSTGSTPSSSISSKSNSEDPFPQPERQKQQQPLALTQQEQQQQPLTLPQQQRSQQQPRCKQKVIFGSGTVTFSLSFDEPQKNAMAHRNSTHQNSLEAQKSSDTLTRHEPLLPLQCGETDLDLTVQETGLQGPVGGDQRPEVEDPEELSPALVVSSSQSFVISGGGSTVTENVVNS
Description: HCAR (CaSR+) and CCL39 (CaSR−) cells were kindly obtained from Novartis AG (Basel, Switzerland) and validated in house. The cells were seeded into μ-slide 18 well plates (ibidi, 81816) at a density of 5000 cells per well and were incubated for 24 h under standard culturing conditions. As our preliminary data indicated considerable nonspecific labeling of dying cells and cellular debris, a viability staining was introduced to ensure probe specificity.[29] Thus, after washing twice with HBSS, cells were incubated in 10 μM Calcein AM solution containing 0.02% Pluronic F-127 and 0.1% DMSO for 45 min at 37 °C. The solution was then removed and washed twice in HBSS before the addition of the HBSS solution containing the SiR probes. All probe solutions were protected from light exposure and contained 0.5% DMSO and various concentrations of BSA depending on the experiment. Incubation with the fluorescent probes was 20 min long, after which a single washing step was introduced with HBSS before imaging. Images of the cells (Calcein: FITC channel, SiR: Cy5 channel) were acquired with a Nikon Eclipse TI2 inverted wide-field fluorescence microscope using a 60× magnification oil immersion objective (Nikon CFI Plan Fluor, 60×, NA = 0.85). For each well, a minimum of 3 images were acquired. For each image, cells were segmented to generate labels on the FITC channel postacquisition using the deep neural network-based Cellpose package in Python 3.9 (model_type: cyto2, diameter: 200, flow_threshold: 0.4).[30] To normalize pixel intensity values across images, for each image, a background value was calculated by taking the average pixel intensity value of the pixels in which no cellular label was present and were negative for the EvoSiR label (triangle thresholding used). For each cell, the skewness of the value distribution and the mean of the Cy5 pixel intensities were calculated. The procedure for evaluating the long-term labeling (72 h) of EvoSiR probes on CCL39 and HCAR cells was similar, with the following modifications: images were retrieved using 10× magnification air objectives (Nikon CFI Plan Fluor 10×, NA = 0.3), in the neural network model, the diameter parameter was set to 30, and only the mean Cy5 pixel intensities per cell object were retrieved.

Row | Structure (SMILES) | effect on viability at 50 μM (HCAR cells) | IC50 (HCAR cells) [µM] | IC50 (CCL39 cells) [µM] | effect on viability at 50 μM (CCL39 cells) | fold increased fluorescence in 0.1% BSA compared to PBS [1] [fold] | increase in absolute fluorescence upon addition of 1% BSA [1] [%] | fold increase in skewness of pixel intensity distribution, CaSR+ (HCAR) vs CaSR- (CCL39) cells (human CaSR; 0.1% BSA) [fold] | concentration above which skewness significantly increased for HCAR compared to CCL39 (human CaSR; 1% BSA) | fold mean fluorescence difference between CaSR+ and CaSR- cells (human CaSR; 50 nM) [fold] | fold mean fluorescence difference between CaSR+ and CaSR- cells (human CaSR; 200 nM) [fold] | concentration at which skewness values saturate (human CaSR; HCAR (CaSR+) cells, 0.1% BSA) [nM] | concentration above which skewness significantly increased for HCAR compared to CCL39 (human CaSR; no BSA and 0.1% BSA) | concentration below which no effect on viability (HCAR cells) [µM] | concentration below which no effect on viability (CCL39 cells) [µM] | effect of preincubating the BSA solution with evocalcet on EvoSiR4 fluorescence ([1]; evocalcet 30–6000 nM, 350 nM EvoSiR4) | reduction in skewness of pixel intensity distribution of EvoSiR4 labeling by competition (human CaSR; CaSR+ cells preincubated with 0–500 nM evocalcet in 0.1% BSA) [%]
1 | Cc1cc(C(=O)NCCCCNC(=O)Cc2ccc(N3CC[C@H](N[C@H](C)c4cccc5ccccc45)C3)cc2)ccc1C1=C2C=CC(=[N+](C)C)C=C2[Si](C)(C)c2cc(N(C)C)ccc21 [EvoSiR4] | significantly reduced | 27.3 ± 2.3 | 36 ± 3.8 | significantly reduced | 4 | 400 | 3.7 | above 2500 nM | 1.3 | 2.5 | 500 | above 500 nM | – | – | – | –
2 | Cc1cc(C(=O)NCCCCCCNC(=O)Cc2ccc(N3CC[C@H](N[C@H](C)c4cccc5ccccc45)C3)cc2)ccc1C1=C2C=CC(=[N+](C)C)C=C2[Si](C)(C)c2cc(N(C)C)ccc21 [EvoSiR6] | significantly reduced | 26 ± 2.3 | 36 ± 6 | significantly reduced | 1.8 | 250 | 2.3 | – | – | – | – | – | – | – | – | –
3 | C[C@@H](N[C@H]1CCN(c2ccc(CC(=O)O)cc2)C1)c1cccc2ccccc12 [evocalcet] | – | – | – | – | – | – | – | – | – | – | – | – | < 50 | < 50 | No significant decrease; also recorded: no significant difference | 55
